For assay [1], the system named is Vero. In words: cells. The following applies: Chlorocebus sabaeus. In kind it is functional.
The subject of assay [2] is Escherichia coli. In words: microbe, parasite or virus in culture.
The target in assay [3] is Mu-type opioid receptor (Homo sapiens, UniProt P35372). In words: Counterscreen for agonists of heterodimerization of the mu 1 (OPRM1) and delta 1 (OPRD1) opioid receptors: Luminescence-based cell-based high throughput dose response assay to identify agonists of OPRM1 homodimerization. The assay is classed as functional. In general terms: A counterscreen serves to expose hits that act by an unwanted route or on another target.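 Also: U2OS cells expressing OPRM1 and beta-arrestin as split beta-galactosidase partners.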
Mu-type opioid receptor, sequence (P35372 whole entry): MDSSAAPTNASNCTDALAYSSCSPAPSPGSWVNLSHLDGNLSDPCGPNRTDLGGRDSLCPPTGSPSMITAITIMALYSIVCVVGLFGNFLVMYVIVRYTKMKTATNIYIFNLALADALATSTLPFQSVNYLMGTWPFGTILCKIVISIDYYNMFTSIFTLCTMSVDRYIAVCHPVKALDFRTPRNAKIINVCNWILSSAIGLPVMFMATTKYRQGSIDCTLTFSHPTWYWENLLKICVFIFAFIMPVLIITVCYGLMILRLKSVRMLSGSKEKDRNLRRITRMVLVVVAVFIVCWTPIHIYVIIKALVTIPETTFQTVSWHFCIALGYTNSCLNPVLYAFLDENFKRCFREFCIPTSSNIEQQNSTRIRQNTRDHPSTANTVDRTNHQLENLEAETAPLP

In assay [4] the target is T1, Short transient receptor potential channel 4 (Mus musculus, UniProt Q9QUQ5).
T1 sequence (Q9QUQ5 whole entry): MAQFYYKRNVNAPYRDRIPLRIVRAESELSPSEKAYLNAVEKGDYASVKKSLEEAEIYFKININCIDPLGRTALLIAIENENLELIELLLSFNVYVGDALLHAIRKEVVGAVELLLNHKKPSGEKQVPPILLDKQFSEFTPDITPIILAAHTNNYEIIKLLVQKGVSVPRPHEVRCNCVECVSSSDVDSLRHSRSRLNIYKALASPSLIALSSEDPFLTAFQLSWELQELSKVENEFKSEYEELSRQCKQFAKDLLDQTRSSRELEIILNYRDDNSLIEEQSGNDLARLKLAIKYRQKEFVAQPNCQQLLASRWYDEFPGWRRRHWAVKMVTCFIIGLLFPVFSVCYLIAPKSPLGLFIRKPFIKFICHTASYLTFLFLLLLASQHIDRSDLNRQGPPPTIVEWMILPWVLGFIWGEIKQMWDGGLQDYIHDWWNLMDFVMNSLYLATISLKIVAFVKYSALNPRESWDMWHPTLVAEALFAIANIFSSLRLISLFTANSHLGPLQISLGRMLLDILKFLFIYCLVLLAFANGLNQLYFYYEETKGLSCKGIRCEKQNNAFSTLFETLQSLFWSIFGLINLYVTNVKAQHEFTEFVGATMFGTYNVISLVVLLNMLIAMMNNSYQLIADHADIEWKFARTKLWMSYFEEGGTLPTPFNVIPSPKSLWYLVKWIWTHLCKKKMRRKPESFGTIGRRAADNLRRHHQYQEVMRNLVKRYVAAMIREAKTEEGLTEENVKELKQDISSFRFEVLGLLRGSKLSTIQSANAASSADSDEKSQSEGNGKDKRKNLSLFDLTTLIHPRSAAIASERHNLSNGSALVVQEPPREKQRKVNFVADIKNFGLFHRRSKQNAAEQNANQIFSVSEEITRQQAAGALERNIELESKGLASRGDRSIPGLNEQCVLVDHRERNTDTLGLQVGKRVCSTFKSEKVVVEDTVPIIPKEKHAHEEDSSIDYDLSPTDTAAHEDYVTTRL
The assay can be described thus: block of DAMGO-driven TRPC4 calcium entry – cell-based, HEK293 TRPC4/mu-opioid, Fluo-4 calcium, dose response (AID 434942).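 Also: potency of inhibitors blocking the TRPC4 calcium response.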 In kind it is functional.

Assay [5] concerns the target 5-hydroxytryptamine receptor 5A (Homo sapiens, UniProt P47898). In words: Counterscreen for agonists of OPRM1-OPRD1 heterodimerization: luminescence-based cell-based high throughput dose response assay to identify agonists of 5-hydroxytryptamine (serotonin) 5A receptor (HTR5A). [Related pubchem assays (depositor defined):AID504326, AID504355, AID504692, AID504904, AID504905]. The assay is classed as functional.

For assay [6], the target named is Delta-type opioid receptor (Homo sapiens, UniProt P41143). The assay can be described thus: Counterscreen for agonists of heterodimerization of the mu 1 (OPRM1) and delta 1 (OPRD1) opioid receptors: Luminescence-based cell-based high throughput dose response assay to identify agonists of OPRD1 homodimerization. [Related pubchem assays (depositor defined):AID504326, AID504355, AID504692, AID504904, AID504905]. In kind it is functional.
Delta-type opioid receptor, sequence (P41143 whole entry): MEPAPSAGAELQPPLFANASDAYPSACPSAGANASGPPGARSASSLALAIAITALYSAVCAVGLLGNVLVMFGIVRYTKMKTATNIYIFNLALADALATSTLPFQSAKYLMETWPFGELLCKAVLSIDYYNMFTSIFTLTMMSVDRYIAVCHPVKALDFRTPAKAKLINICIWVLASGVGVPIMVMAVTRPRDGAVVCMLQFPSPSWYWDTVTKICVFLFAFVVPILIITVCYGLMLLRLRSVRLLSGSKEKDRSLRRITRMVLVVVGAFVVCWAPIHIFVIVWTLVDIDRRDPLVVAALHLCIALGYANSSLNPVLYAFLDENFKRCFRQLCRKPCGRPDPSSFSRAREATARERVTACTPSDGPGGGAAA

A short description of assay [7]: MIN6 cell viability loss – mouse insulinoma, cytotoxicity control, dose response (AID 2122).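 Also: confirmatory high-throughput counterscreen run to flag cytotoxic compounds.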 In kind it is functional.
Assay [8] is described as follows: decrease of insulin promoter-GFP reporter – imaging, high-content screening, mouse beta cells (AID 1628). The assay is classed as functional. The following applies: MIN6.
Assay [9] can be described thus: reduction of Shn3 3'UTR-driven luciferase in osteoblasts – cell-based, Clone20 osteoblasts, firefly luciferase, cherry-picked, dose response (AID 624132).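 Also: firefly luciferase luminescence from reporter carrying the Shn3 3'UTR in osteoblasts.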 In kind it is functional.
In assay [10] the test system is INS1. The assay can be described thus: INS-1E survival protection against cytokine death – cell-based, luminescence, retest, dose response (AID 449756).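 Also: cell death triggered by IL-1 beta plus TNF-alpha plus IFN-gamma mixture; protective hits raise ATP signal compared with cytokine alone wells.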 In kind it is functional. As to conditions: Rattus norvegicus.
Assay [11] in a line: cells. The assay is classed as functional, cell-based.
Assay [12] is described as follows: loss of viability in HepG2 cells – cell-based, CellTiter-Glo, cherry-picked, cytotoxicity control for Shn3 inhibitor project, dose response (AID 624134). In kind it is functional. In general terms: ATP-based viability assays read luminescence as a measure of living cells.
Assay [13] in a line: cells. In kind it is functional, cell-based. This is another data set of the same source.
The nature of assay [14]: non-specific 3'UTR reporter inhibition in Clone20-Shn3RL – cell-based, Renilla luciferase, cherry-picked, counter-screen for Shn3 inhibitor project, dose response (AID 624133). In kind it is functional.
For assay [15], the target named is T2, Long-chain-fatty-acid--AMP ligase FadD28 (Mycobacterium tuberculosis, UniProt P9WQ59).
T2 sequence (P9WQ59 whole entry): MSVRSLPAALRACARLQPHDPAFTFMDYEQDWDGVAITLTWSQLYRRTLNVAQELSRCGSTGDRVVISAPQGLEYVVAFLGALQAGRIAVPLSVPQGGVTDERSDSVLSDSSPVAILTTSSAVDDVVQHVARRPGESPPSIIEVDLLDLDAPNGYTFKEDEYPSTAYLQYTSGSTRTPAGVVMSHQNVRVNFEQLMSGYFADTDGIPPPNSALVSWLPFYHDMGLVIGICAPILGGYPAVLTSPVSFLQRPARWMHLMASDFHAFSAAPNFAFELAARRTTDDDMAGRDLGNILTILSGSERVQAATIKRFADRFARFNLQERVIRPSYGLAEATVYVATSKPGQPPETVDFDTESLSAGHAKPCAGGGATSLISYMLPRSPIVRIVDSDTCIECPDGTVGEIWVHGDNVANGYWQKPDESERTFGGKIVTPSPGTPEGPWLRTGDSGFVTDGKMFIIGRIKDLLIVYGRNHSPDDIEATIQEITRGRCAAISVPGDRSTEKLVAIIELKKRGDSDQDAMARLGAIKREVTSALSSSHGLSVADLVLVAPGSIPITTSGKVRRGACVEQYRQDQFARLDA
In words: Fluorescence polarization aasay to screen for inhibitors that compete for the binding of FadD28 to a bisubstrate Measured in Biochemical System Using Plate Reader - 2147-01_Inhibitor_Dose_CherryPick_Activity. The assay is classed as functional, Mycobacterium tuberculosis H37Rv. (Fluorescence polarisation rises when a labelled molecule tumbles more slowly, as on binding a larger partner.)

The target of assay [16] is E3 ubiquitin-protein ligase Mdm2 (Homo sapiens, UniProt Q00987). The assay can be described thus: MDM2-luc reporter signal enhancers, multi-concentration potency testing, MDM2 ubiquitin-protein ligase inhibitor program, whole-cell format, luminescence detection, 384-well microplate (AID 1394).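 Also: MDM2 E3 inhibitors raise luminescence so EC50 is for signal enhancement.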 The assay is classed as functional.
E3 ubiquitin-protein ligase Mdm2, sequence (Q00987 whole entry): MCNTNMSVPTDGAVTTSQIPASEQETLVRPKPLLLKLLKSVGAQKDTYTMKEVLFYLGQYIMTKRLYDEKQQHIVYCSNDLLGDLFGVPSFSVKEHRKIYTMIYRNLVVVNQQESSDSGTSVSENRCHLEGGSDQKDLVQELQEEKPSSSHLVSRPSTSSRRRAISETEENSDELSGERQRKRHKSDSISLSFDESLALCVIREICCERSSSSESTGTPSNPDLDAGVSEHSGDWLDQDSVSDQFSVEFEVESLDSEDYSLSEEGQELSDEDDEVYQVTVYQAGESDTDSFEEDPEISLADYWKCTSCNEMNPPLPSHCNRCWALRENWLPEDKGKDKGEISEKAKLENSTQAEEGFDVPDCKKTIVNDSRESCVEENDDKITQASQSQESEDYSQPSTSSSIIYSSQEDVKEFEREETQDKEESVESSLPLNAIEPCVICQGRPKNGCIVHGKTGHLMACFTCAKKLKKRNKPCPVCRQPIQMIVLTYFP
Assay [17] addresses T3, Lysine-specific demethylase 4C (Homo sapiens, UniProt Q9H3R0).
T3 sequence (Q9H3R0 whole entry): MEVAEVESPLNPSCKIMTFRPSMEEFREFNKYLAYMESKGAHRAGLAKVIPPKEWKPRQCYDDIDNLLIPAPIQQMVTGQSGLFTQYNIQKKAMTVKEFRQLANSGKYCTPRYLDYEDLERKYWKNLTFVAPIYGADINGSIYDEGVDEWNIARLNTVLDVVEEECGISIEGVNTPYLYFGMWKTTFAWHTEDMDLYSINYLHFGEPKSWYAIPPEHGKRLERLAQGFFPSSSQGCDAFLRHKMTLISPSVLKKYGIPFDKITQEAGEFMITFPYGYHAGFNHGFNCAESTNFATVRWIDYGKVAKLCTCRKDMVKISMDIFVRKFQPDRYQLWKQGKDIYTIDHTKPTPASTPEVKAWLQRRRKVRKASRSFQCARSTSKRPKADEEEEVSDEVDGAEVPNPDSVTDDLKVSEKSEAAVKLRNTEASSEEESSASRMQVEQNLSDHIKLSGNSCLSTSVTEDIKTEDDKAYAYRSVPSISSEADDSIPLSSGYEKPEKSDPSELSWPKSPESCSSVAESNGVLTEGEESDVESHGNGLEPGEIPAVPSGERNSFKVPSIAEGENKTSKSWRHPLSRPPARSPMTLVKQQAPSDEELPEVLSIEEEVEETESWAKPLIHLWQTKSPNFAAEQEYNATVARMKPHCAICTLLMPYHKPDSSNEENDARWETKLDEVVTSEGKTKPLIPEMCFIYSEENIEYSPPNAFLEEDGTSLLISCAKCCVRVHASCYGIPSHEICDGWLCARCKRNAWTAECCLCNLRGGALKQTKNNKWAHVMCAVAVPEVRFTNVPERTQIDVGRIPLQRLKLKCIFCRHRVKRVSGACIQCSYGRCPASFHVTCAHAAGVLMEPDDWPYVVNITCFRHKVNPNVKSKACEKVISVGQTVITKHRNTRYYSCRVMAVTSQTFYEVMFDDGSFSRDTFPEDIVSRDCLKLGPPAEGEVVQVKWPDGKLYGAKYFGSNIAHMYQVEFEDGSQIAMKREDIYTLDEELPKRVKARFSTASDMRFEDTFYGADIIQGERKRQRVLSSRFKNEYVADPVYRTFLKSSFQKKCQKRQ
In words: inhibition of JMJD2C H3K9me3 demethylation – biochemical, DELFIA europium, cherry-picked samples, dose response (AID 488835). In kind it is functional.

Assay [18] concerns the target Large T antigen (Simian virus 40, UniProt P03070). The assay is classed as functional, Betapolyomavirus macacae.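 Also: Confirmatory-stage PubChem screen for compounds that inhibit SV40 T antigen.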
The target in assay [19] is T4, Heat shock factor protein 1 (Mus musculus, UniProt P38532).
T4 sequence (P38532 whole entry): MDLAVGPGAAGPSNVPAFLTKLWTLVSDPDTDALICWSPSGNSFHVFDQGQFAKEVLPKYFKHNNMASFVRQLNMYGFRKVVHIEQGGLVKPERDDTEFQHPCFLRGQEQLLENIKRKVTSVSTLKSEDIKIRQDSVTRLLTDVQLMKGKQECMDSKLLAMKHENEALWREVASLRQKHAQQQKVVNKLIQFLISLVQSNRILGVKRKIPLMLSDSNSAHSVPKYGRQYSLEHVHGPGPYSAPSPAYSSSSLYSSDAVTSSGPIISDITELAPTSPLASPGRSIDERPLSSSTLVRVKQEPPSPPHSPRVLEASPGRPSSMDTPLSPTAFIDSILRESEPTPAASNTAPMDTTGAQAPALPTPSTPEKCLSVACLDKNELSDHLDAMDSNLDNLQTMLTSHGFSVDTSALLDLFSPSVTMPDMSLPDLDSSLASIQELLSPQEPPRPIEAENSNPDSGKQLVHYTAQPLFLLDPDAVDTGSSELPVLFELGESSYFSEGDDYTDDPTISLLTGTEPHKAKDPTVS
The assay can be described thus: enhancement of HSF1-driven luciferase signal – cell-based, NIH3T3, luminescence, dose retest, confirmation (AID 435004).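 Also: stress induced by proteasome inhibitor MG132 added 30 min after compound; luciferase reporter driven by HSF1 response element in NIH3T3 cells; actives raise luminescence as potentiators of the MG132 stress response.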 The assay is classed as functional.

The source made the active and inactive calls.

A word on the CC50: it is the concentration at which the toxic effect on the cells reaches its halfway point. What is called AC50 is the concentration giving half of the maximal activity seen. What is called EC50 is the concentration giving half of the maximal effect. A word on the IC50: it is the concentration at which inhibition is half-maximal.

5-hydroxytryptamine receptor 5A, sequence (P47898 whole entry): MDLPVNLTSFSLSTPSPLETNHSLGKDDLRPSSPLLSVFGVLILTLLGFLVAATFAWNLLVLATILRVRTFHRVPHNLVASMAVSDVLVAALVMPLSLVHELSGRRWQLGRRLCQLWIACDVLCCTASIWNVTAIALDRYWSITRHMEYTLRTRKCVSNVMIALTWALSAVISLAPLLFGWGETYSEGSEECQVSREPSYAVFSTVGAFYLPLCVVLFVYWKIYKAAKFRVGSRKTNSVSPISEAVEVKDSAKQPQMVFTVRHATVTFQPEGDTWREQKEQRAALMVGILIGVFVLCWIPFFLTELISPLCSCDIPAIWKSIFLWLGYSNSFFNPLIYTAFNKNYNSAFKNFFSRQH
Large T antigen, sequence (P03070 whole entry): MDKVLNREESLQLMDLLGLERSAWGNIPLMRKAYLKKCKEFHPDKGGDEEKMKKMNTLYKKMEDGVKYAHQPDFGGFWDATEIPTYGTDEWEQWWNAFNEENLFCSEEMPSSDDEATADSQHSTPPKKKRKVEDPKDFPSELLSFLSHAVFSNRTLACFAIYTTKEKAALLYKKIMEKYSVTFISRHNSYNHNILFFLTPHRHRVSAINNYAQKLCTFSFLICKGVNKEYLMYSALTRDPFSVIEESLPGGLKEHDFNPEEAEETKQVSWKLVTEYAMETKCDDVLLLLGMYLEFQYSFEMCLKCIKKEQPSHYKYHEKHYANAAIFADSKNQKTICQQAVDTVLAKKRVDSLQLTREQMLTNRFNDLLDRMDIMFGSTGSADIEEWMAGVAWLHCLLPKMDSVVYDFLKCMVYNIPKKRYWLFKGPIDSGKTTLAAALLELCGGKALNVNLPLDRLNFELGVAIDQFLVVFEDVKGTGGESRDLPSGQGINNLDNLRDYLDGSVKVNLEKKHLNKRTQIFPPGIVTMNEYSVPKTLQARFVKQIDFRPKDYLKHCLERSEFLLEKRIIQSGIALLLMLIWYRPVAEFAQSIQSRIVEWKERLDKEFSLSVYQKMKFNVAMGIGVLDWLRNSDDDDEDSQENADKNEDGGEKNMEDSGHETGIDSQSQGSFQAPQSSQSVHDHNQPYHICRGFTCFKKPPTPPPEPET

On to `O=C1N(c2ccccc2C(F)(F)F)OC1(Cc1ccccc1)c1ccccc1` (centres undefined), for which, in assay [1], the CC50 was > 25 µM (active).
On to `COC(=O)c1c(NC(=O)CCN2CCOCC2)sc2c1CCCC2`, for which, in assay [2], the AC50 was 85.8 µM (active).
Consider `CN(C)C(CNC(=O)c1cccc(C(F)(F)F)c1)c1ccco1` (centres undefined), for which the EC50 is > 92.4 µM (inactive) in [3], 0.376 µM (active) in assay [4], > 92.4 µM (inactive) in assay [5] and > 92.4 µM (inactive) in assay [6].
With `Cc1nc(SCc2ccc(C(=O)O)cc2)c2c(C)c(C)sc2n1`, the AC50 in assay [2] was 28.5 µM (active).
As for `Cn1c(=O)c2c(nc(NCc3ccc4c(c3)OCO4)n2Cc2ccccc2)n(C)c1=O`, the IC50 in assay [7] is 0.541 µM (active); in assay [8], 0.696 µM (active).
Take `Cc1ccc(Nc2c(-c3ccccn3)nc3ccc(C)cn23)cc1`: the AC50 in [9] is 1.74 µM (active); in assay [10], 3 µM (active); in assay [12] it was 5.21 µM (active); in [14], 3.02 µM (active). For the same compound, the EC50 in assay [11] was 79.5 µM (active); in assay [13], 38.3 µM (active). For the same compound, the half-inhibitory concentration (IC50) is 0.539 µM (active) in [7] and 1.95 µM (active) in assay [8].
For `CN(C)C(CNC(=O)CSC(=S)N1CCCC1)c1ccccc1` (centres undefined), the EC50 in [3] is 17.1 µM (inactive); in assay [5], > 92.5 µM (inactive); in assay [6], > 92.5 µM (inactive).
For the compound `CCN1C(=O)C(=C/C=C/c2ccco2)C(=O)N(CC)C1=S`, the AC50 in [15] is > 100 µM (inactive); in assay [17], 1.18 µM (active). Besides, the EC50 in assay [16] was 25 µM (not active). Also, the IC50 in assay [18] is 45.3 µM (active).
`COc1ccccc1NC(=O)c1sc2nc(C)cc(C)c2c1N`: the EC50 in assay [3], in assay [5] and in assay [6] was > 92.5 µM (inactive) throughout.
`COc1ccc(-c2nnc(Nc3ccc(CC(N)=O)cc3)c3ccccc23)cc1`: the EC50 in [19] is > 260 µM (inactive). In addition, in assay [2], the AC50 is 23.2 µM (active).

Source of the values: ChEMBL document CHEMBL1201862, “PubChem BioAssay data set” (2004).
